Reference: patent US7517857B2, “Immune-modulating peptide” (POSCO, priority 2002, dated 2009)
Where a SMILES comes first, the peptide text is derived from it. Where no end group is shown, it is not given here. [ ]: non-standard residue; d: D form.

Experiments:
FPRL1 [1] = target: T1, FPRL1 (Homo sapiens, UniProt P25090); assay: Chemotaxis of FPRL1-expressing RBL-2H3 cells (modified Boyden chamber); format: cell-based; conditions: FPRL1-expressing RBL-2H3 cells; various concentrations
T1 construct: expressed in transfected cells; host or cells: RBL-2H3 (rat basophilic leukemia) cells, G418-selected
T1 sequence (P25090 1-351): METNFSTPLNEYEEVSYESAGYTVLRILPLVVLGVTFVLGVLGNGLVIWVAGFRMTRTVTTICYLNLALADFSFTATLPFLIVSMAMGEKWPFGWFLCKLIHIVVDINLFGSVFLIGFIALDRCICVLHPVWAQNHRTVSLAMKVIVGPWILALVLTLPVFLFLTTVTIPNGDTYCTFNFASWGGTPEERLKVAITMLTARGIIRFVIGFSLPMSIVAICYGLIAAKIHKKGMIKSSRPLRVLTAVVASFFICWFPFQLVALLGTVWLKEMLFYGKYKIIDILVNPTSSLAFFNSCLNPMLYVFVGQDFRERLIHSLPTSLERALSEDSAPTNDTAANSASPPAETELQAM
Protocol: Chemotaxis assays were performed using multiwell chambers (modified Boyden chamber assay) (Neuroprobe Inc., Gaithersburg, Md.) (18). Briefly, polycarbonate filters (8 μm pore size) were precoated with 50 μg/ml of rat type I collagen (Collaborative Biomedicals) in a HEPES-buffered RPMI 1640 medium. A dry coated filter was placed on a 96-well chamber containing different concentrations of peptides. RBL-2H3 cells expressing FPR or FPRL1 were suspended in RPMI at a concentration of 1×10^6 cells/ml of serum-free RPMI, and 25 μl of the suspension were placed onto the upper well of the 96-well chemotaxis chamber. After incubation for 4 hours at 37° C., non-migrated cells were removed by scraping them out, and cells that migrated across the filter were dehydrated, fixed, and stained with hematoxylin (Sigma, St. Louis, Mo.). The stained cells in five randomly chosen high power fields (HPF) (400×) in that well were then counted. […] The numbers of migrated cells were determined by counting them in a high power field (400×). The Data are presented as means ±SE of three independent experiments each performed in duplicate. The effect of the peptides of the present invention on cellular chemotaxis in FPR- or FPRL1-expressing RBL-2H3 cells was measured. Various concentrations of each peptide were used for the chemotaxis assay with FPR- or FPRL1-expressing RBL-2H3 cells. The numbers of migrated cells were determined by counting them in a high power field (400×). The Data are presented as means ±SE of two independent experiments each performed in duplicates.

FPRL1 [2] = target: T1, FPRL1; assay: Displacement of 125I-labeled WKYMVm binding to FPRL1 (FPRL1-expressing RBL-2H3 cells); conditions: FIG. 2B
Protocol: From the finding that some of the peptides (WKGMVm (SEQ ID NO: 1), WKRMVm (SEQ ID NO: 11), D-Met^6 substituted peptides) could not induce a cytosolic calcium increase, it was checked whether the peptides can bind to FPR or not. Displacement of ^125I-labeled WKYMVm binding to FPR or FPRL1 by the peptides was monitored. FPR-expressing RBL-2H3 cells were incubated with [^125I] WKYMVm in the absence or presence of increasing amounts of unlabeled WKYMVm or the peptides of SEQ ID NOs: 1 to 24.
A ligand binding analysis was performed as modified from the previous report (16). The radioiodinated WKYMVm (^125I-labeled) was purchased from NEN Lifesciences (Boston, Mass.). Briefly, FPR- or FPRL1-expressing RBL-2H3 cells were seeded into 1×10^5 cells per well of a 24-well plate and cultured overnight. After blocking the cells with a blocking buffer (33 mM HEPES, pH 7.5, 0.1% BSA in RPMI) for 2 hr, a single concentration of ^125I-labeled WKYMVm was added to cells with a binding buffer (PBS containing 0.1% BSA) in the absence or presence of 50 μM unlabelled peptides and incubated for 3 hr at 4° C. with continuous shaking. Then the samples were washed 5 times with ice-cold binding buffer, and 200 μl of lysis buffer (20 mM Tris, pH 7.5, 1% Triton X-100) was added to each well. After 20 min of lysis at room temperature, the lysates were collected. Bound ^125I-labeled WKYMVm was measured for radioactivity for a γ-ray counter.

Row | Compound | cellular chemotaxis (FPRL1 [1]) | inhibition of [^125I] WKYMVm binding (FPRL1 [2])
1 | CSCC[C@H](NC(=O)CNC(=O)[C@H](CCCCN)NC(=O)[C@@H](N)Cc1c[nH]c2ccccc12)C(=O)N[C@H](C(=O)N[C@H](CCSC)C(N)=O)C(C)C [WKGMVm-NH2, Trp-Lys-Gly-Met-Val-D-Met-NH2] (H-WKGMV[dM]-NH2; N-terminus assumed) | induced cellular chemotaxis showing concentration-dependency | inhibited binding of [^125I] WKYMVm in a concentration-dependent manner
2 | CSCC[C@H](NC(=O)[C@H](CCCNC(=N)N)NC(=O)[C@H](CCCCN)NC(=O)[C@@H](N)Cc1c[nH]c2ccccc12)C(=O)N[C@H](C(=O)N[C@H](CCSC)C(N)=O)C(C)C [WKRMVm-NH2, Trp-Lys-Arg-Met-Val-D-Met-NH2] (H-WKRMV[dM]-NH2; N-terminus assumed) | induced cellular chemotaxis showing concentration-dependency | inhibited binding of [^125I] WKYMVm in a concentration-dependent manner
3 | CSCC[C@H](NC(=O)[C@H](Cc1ccc(O)cc1)NC(=O)[C@H](CCCCN)NC(=O)[C@@H](N)Cc1c[nH]c2ccccc12)C(=O)N[C@H](C(=O)N[C@H](CCSC)C(N)=O)C(C)C [WKYMVm-NH2, Trp-Lys-Tyr-Met-Val-D-Met-NH2, reference compound] | induced cellular chemotaxis showing concentration-dependency | inhibited binding of [^125I] WKYMVm in a concentration-dependent manner
4 | WKYMVE-NH2 [WKYMVE-NH2, Trp-Lys-Tyr-Met-Val-Glu-NH2] | induced cellular chemotaxis showing concentration-dependency | 
5 | WKYMVR-NH2 [WKYMVR-NH2, Trp-Lys-Tyr-Met-Val-Arg-NH2] | induced cellular chemotaxis showing concentration-dependency | 
